Test results as given in ChEMBL document CHEMBL1201862, “PubChem BioAssay data set” (2004).
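Five concentrations, 48 hours, 96-well plates. The concentration for 50% growth inhibition is given as GI50.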 Activity calls are given as the source filed them. No stated cut-off is given here; in the data, active = GI50 up to about 1.1 µM and inactive = higher.

Key:
Experiment in all cases: NCI tumour cell line growth inhibition, 48 h
[1] = test system: A498
[2] = test system: CAKI-1
[3] = test system: COLO 205
[4] = test system: DMS-273
[5] = test system: HCT-116
[6] = test system: HOP-18
[7] = test system: HOP-92
[8] = test system: M19-MEL
[9] = test system: SN12C
[10] = test system: SNB-19
[11] = test system: SNB-75
[12] = test system: XF498
[13] = test system: DMS-114
[14] = test system: MCF7
[15] = test system: NCI-H23
[16] = test system: NCI-H460
[17] = test system: NCI/ADR-RES
[18] = test system: OVCAR-4
[19] = test system: RXF 393
[20] = test system: UACC-62

Measured: GI50

COc1ccc(C2C(C#N)=C(O)NC(O)=C2C#N)cc1OC
inactive: [1] > 100 µM | [2] > 100 µM | [3] > 100 µM | [4] > 100 µM | [5] > 100 µM | [6] > 100 µM | [7] > 100 µM | [8] > 100 µM | [9] > 100 µM | [10] > 100 µM | [11] > 100 µM | [12] > 100 µM

CCN1CC2(CO)CCC(OC)C34C5CC6C(OC)CC(O)(C5C6OC)C(O)(C(OC)C23)C14 (configuration not stated)
inactive: [1] > 375 µM | [2] > 375 µM | [3] > 375 µM | [13] > 375 µM | [4] > 375 µM | [5] > 375 µM | [6] > 375 µM | [7] 168 µM | [8] > 375 µM | [14] > 375 µM | [15] > 375 µM | [16] > 375 µM | [17] > 375 µM | [18] > 375 µM | [19] > 375 µM | [9] > 375 µM | [10] > 375 µM | [11] > 362 µM | [20] > 375 µM | [12] > 360 µM

CN(C)CCNCc1c2ccccc2c(CNCCN(C)C)c2ccccc12
inactive: [1] 27.1 µM | [3] 9.53 µM | [13] 26 µM | [4] 34 µM | [5] 16.5 µM | [6] 44.4 µM | [7] 10.4 µM | [8] 24.5 µM | [14] 26 µM | [15] 36 µM | [16] 27 µM | [17] > 100 µM | [18] 28.3 µM | [19] 20.6 µM | [9] 38.9 µM | [11] 43.6 µM | [20] 26.1 µM | [12] 58.2 µM

O=C(O)CCC(NC(=O)c1ccc(Nc2nc3ccc(C(F)(F)F)cc3nc2-c2ccccc2)cc1)C(=O)O (configuration not stated)
inactive: [1] > 100 µM | [2] > 57.8 µM | [3] > 100 µM | [13] > 100 µM | [4] > 100 µM | [5] > 100 µM | [6] 3.37 µM | [7] > 46.6 µM | [8] > 100 µM | [14] > 100 µM | [15] > 100 µM | [16] > 100 µM | [17] > 100 µM | [18] > 100 µM | [19] > 100 µM | [9] > 100 µM | [10] > 100 µM | [11] > 100 µM | [20] > 100 µM | [12] 98.4 µM

CCC12CCC[C@@]13C=C[C@H](O3)C(C)(C)C2=O (some centres not stated)
inactive: [2] > 100 µM | [13] > 100 µM | [4] > 100 µM | [5] > 100 µM | [6] > 100 µM | [8] > 100 µM | [15] > 100 µM | [16] > 100 µM | [18] > 100 µM | [19] > 100 µM | [9] > 100 µM | [10] > 100 µM | [11] > 100 µM | [20] > 100 µM

S=C1NN=C2C(=C3CCCC4C5CCCCC5N2C34)N1 (configuration not stated)
inactive: [2] > 100 µM | [3] 33 µM | [7] > 100 µM | [14] 44.5 µM | [15] > 100 µM | [17] > 100 µM | [18] > 100 µM | [10] > 100 µM
